Legend:
[1] = test system: male avian broiler chicks; assay: Bioavailability of zinc in chicks fed a zinc-free basal corn-soybean diet plus zinc source, 20-day experiment; format: in vivo
Method: An experiment was conducted to compare the bioavailability of zinc from zinc diammine chloride (ZDC or Zn(NH3)2Cl2) with that of reagent grade zinc sulfate heptahydrate (ZSH or ZnSO4.7H2O). A zinc-free basal corn-soybean diet was formulated. The zinc sources were added to the basal diet at doses of 4 mg Zn per kg and 8 mg Zn per kg. The basal and experimental diets were mixed using a horizontal mixer for basal diet and a Hobart mixer for individual treatments. All diets were fed as a mash feed. Eighty male avian broiler chicks were used in the 20-day experiment. The test birds were randomly divided into 20 pens of 4 birds each. The birds were housed in thermostatically controlled, stainless steel battery cages with raised wire flooring in an environmentally controlled facility. Environmental conditions for the birds (i.e., floor space, temperature, lighting, feeder and water space) were similar for all test groups. The chicks were pretested for the first three days after hatching; and then they were switched to the basal diet until the start of the study at day eight. Water that had been deionized and distilled and feed was available for ad libitum consumption.
All feed added to the pens was recorded. Feed was weighed back at the conclusion of the trial and the feed intake was calculated. The ratio of weight gain to feed consumed was calculated for the period using the average weight gain of birds per treatment divided by the average feed consumption for the treatment throughout the test period.

[2] = Soluble copper versus pH on titration of TBCC mother liquor with NH4OH; format: physicochemical; conditions: pH about 5.6, room temperature, ammonium chloride mother liquor
Method: The starting material used for this example was mother liquor remaining after the production of tribasic copper chloride (TBCC) from spent circuit board chemical etchants. The particular sample of mother liquor was slightly acidic, contained several hundred grams per liter of ammonium chloride and about 12 g/L of dissolved copper. The series of tests were conducted at room temperature. A 400 mL sample was titrated with NH4OH solution having a specific gravity of 0.93 and containing about 16% NH3 by weight. The pH and soluble copper concentrations were measured after each increment of NH4OH solution added. The results are illustrated in FIG. 4. Precipitation of copper initiated at a pH of about 4.1 and continued until the pH reached about 5.5. It was apparent that the copper amine chloride salt was forming at least within the pH range of 4.5 to 5.6. As expected from the stoichiometry of Equation 3, about 1 mole of copper was precipitated for every 2 moles of ammonia added. For this particular series of tests, the minimum solubility of copper was about 1,000 mg/L at a pH of about 5.6. As more ammonium hydroxide was added to raise the pH above 5.6, the copper amine chloride salt dissolved to form a navy blue soluble copper tetrammine complex. At a pH above about 7.2 virtually all of the copper ammine chloride salt had dissolved. […]

| Structure (SMILES) | improvement of overall weight gain compared to the control ([1]; 4 mg Zn per kg feed) | improvement of weight gain per unit of feed compared to the control ([1]; 4 mg Zn per kg feed) | improvement of overall weight gain compared to the control ([1]; 8 mg Zn per kg feed) [%] | improvement of weight gain per unit of feed compared to the control ([1]; 8 mg Zn per kg feed) [%] | Feed Intake ([1]; Zn 4 mg/kg added to basal diet) [g/chick] | Gain:Feed ([1]; Zn 4 mg/kg added to basal diet) [g/kg] | Weight Gain ([1]; Zn 4 mg/kg added to basal diet) [g/chick] | Feed Intake ([1]; Zn 8 mg/kg added to basal diet) [g/chick] | Gain:Feed ([1]; Zn 8 mg/kg added to basal diet) [g/kg] | Weight Gain ([1]; Zn 8 mg/kg added to basal diet) [g/chick] | minimum solubility of copper [2] |
| --- | --- | --- | --- | --- | --- | --- | --- | --- | --- | --- | --- |
| N.N.[Cl][Zn][Cl] [ZDC, zinc diammine chloride] | about 37% | about 24% | ~75 | ~28 | 189.8 | 523 | 99.3 | 235.3 | 538 | 126.5 | – |
| N.N.[Cl][Cu][Cl] [CDC, copper diammine chloride] | – | – | – | – | – | – | – | – | – | – | about 1,000 mg/L |
| O.O.O.O.O.O.O.O=S(=O)([O-])[O-].[Zn+2] [ZnSO4•7H2O, zinc sulfate heptahydrate, reference compound] | – | – | – | – | 201.8 | 497 | 100.5 | 233.5 | 514 | 119.8 | – |
